Each structure is given as a SMILES string. Where a name gives a salt, the structure may show the parent alone. Some results are limits rather than exact numbers.

Chain of δ receptor (P41143 whole entry): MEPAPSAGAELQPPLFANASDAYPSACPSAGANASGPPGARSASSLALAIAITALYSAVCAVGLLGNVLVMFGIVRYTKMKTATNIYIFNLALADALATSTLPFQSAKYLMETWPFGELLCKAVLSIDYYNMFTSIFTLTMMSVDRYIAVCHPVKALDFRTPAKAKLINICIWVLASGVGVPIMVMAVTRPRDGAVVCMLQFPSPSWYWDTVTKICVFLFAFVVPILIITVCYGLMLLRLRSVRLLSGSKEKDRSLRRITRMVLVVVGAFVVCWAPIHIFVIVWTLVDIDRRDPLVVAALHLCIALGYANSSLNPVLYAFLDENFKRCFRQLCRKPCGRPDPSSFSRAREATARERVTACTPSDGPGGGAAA

One data set addresses δ receptor (Homo sapiens, UniProt P41143). Conditions: background statement; cited from earlier work.
As for `Oc1ccc2c3c1O[C@H]1c4[nH]c5ccccc5c4C[C@@]4(O)[C@@H](C2)N(CC2CC2)CC[C@]314` [naltrindole], the “selectivity for the δ receptor vs. μ receptor binding” value is less than 10 fold.

Tested on in a further data set: not given
Conditions: background statement; cited from earlier work.
On to `Oc1ccc2c3c1O[C@H]1c4[nH]c5ccccc5c4C[C@@]4(O)[C@@H](C2)N(CC2CC2)CC[C@]314` [naltrindole], for which the analgesic activity result is “no analgesic activity”.

Tested on in another data set: not given
Settings: not given
Consider `CCN(CC)C(=O)c1ccc(C(O)(c2cccc3cccnc23)C2CCN(C(=O)OC(C)(C)C)CC2)cc1` (stereo not drawn), for which the melting point (commonly the temperature of the solid-liquid transition) was 100 to 105 °C. Same read-out and setting: the figure for `CCN(CC)C(=O)c1ccc(C(O)(c2cccc(OC)c2)C2CCN(C(=O)OC(C)(C)C)CC2)cc1` (stereo not drawn) is 95 to 103 °C; for `CCN(CC)C(=O)c1ccc(C(=C2CCN(C3CCCCC3)CC2)c2ccccc2)cc1` (as salt: HCl) it is 105 to 109 °C.

For `CCN(CC)C(=O)c1ccc(C(=C2CCN(Cc3ccc(OC)cc3)CC2)c2ccccc2)cc1` (as salt: HCl), the melting point was in the range of 100 to 110 °C. As for `CCN(CC)C(=O)c1ccc(C(=C2CCN(Cc3ccc(Cl)cc3Cl)CC2)c2ccccc2)cc1` (as salt: HCl), the melting point is 95 to 110 °C. Still for that read-out and setting: to `CCN(CC)C(=O)c1ccc(C(=C2CCNCC2)c2cccc3cccnc23)cc1` (as salt: HCl) belongs > 170 °C (dec.). With `CCN(CC)C(=O)c1ccc(C(=C2CCNCC2)c2cccc(OC)c2)cc1` (as salt: HCl), the melting point is > 90 °C (dec.). In turn, `CCN(CC)C(=O)c1ccc(C(=C2CCN(Cc3ccccc3)CC2)c2cccc(OC)c2)cc1` (as salt: HCl) yielded a melting point of 100 to 110 °C.

Molecule `CCN(CC)C(=O)c1ccc(C(=C2CCN(Cc3ccccc3)CC2)c2ccccc2)cc1` (as salt: HCl) yielded a melting point of 230 to 245 °C.

`CCN(CC)C(=O)c1ccc(C(=C2CCN(Cc3ccccc3)CC2)c2ccc(Cl)cc2)cc1` (as salt: salt): the melting point is 100 to 110 °C.

(Values after patent publication US7312336B2, “Compounds with analgesic effect” (AstraZeneca Canada Inc., priority 1996, dated 2007).)
